# Results published in paper PMC9469100, “Turning Nonselective Inhibitors of Type I Protein Arginine Methyltransferases into Potent and Selective Inhibitors of Protein Arginine Methyltransferase 4 through a Deconstruction–Reconstruction and Fragment-Growing Approach” (Journal of Medicinal Chemistry, 2022).
# What was measured:
# [1] = target: PRMT1 (Homo sapiens, UniProt Q99873); assay: AlphaLISA PRMT1 activity assay (H4R3me)
# Method: Then, we resolved to determine their effect on the catalytic activity of human recombinant PRMT1, chosen as representative of class I PRMTs. […] PRMT1 activity assays were performed by taking advantage of the AlphaLISA homogeneous proximity assay.
# The reaction was incubated for 60 min, and then it was stopped by the addition of 5 μL of antimethyl-histone H4 arginine 3 (H4R3me) AlphaLISA acceptor beads (PerkinElmer, #AL150) (final concentration, 20 μg/mL) diluted in Epigenetic Buffer 1X (PerkinElmer, #AL008).
# For each incubation step, the OptiPlate was sealed with protective foil to prevent evaporation and contamination. Donor and acceptor beads were added in subdued light.
# The 100% activity (positive control) was reached using the vehicle (DMSO) while the 0% activity (negative control) was obtained without the protein. Data were analyzed using Excel software. Values obtained for each compound are mean ± SD determined for three separate experiments.
# [2] = target: T1, SET7/9 (Homo sapiens, UniProt Q8WTS6); assay: HotSpot KMT activity assay, SET7/9; type: biochemical; conditions: 1 µM; mean ± SD, two experiments; read-out: % enzyme residual activ. after treatment with 12h, 1 µM, SET7/9
# T1 construct: SET7/9 (residues 2–366, C-terminus); with a N-terminal GST-tag and a C-terminal His-tag; GST (N); His (C); purchased Reaction Biology Corporation
# T1 sequence (Q8WTS6 2-366): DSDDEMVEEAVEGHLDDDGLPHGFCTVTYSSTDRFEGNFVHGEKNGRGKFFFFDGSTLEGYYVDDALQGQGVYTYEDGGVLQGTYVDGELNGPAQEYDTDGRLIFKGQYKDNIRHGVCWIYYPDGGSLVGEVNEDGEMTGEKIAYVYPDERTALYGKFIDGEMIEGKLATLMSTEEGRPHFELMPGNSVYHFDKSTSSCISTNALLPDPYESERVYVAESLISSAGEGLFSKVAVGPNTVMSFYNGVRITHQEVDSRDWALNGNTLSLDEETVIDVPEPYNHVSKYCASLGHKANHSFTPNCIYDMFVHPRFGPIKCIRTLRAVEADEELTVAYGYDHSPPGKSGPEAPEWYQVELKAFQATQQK
# Method: (§1) Then, ^3H-SAM (final concentration 1 μM) was delivered into the reaction mixture to initiate the reaction. After incubation for 60 min at 30 °C, the reaction mixture was delivered to filter-paper for detection (as assessed by scintillation). […] No inhibitor control (DMSO) was considered as 100% enzyme activity. Data were analyzed using Excel and GraphPad Prism 6.0 software (GraphPad Software Inc., San Diego, CA). Values obtained for each compound are mean ± SD determined for two separate experiments.
# [3] = target: T2, ASH1L (Homo sapiens, UniProt Q9NR48); assay: HotSpot KMT activity assay, ASH1L; type: biochemical; conditions: 1 µM; mean ± SD, two experiments; read-out: % enzyme residual activ. after treatment with 12h, 1 µM, ASH1L
# T2 construct: ASH1L (residues 2046–2330, with an N-terminal His-tag); His (N); purchased Reaction Biology Corporation
# Method: as §1
# [4] = target: T3, EZH2 complex (Homo sapiens, UniProt Q15910); assay: HotSpot KMT activity assay, EZH2; type: biochemical; conditions: mean ± SD, two experiments, read-out: % enzyme residual activ. after treatment with 12h, 1 µM, EZH2
# T3 construct: including EZH2 residues 2–746, AEBP2 2–517; His (N); purchased Reaction Biology Corporation
# T3 sequence (Q15910 2-746): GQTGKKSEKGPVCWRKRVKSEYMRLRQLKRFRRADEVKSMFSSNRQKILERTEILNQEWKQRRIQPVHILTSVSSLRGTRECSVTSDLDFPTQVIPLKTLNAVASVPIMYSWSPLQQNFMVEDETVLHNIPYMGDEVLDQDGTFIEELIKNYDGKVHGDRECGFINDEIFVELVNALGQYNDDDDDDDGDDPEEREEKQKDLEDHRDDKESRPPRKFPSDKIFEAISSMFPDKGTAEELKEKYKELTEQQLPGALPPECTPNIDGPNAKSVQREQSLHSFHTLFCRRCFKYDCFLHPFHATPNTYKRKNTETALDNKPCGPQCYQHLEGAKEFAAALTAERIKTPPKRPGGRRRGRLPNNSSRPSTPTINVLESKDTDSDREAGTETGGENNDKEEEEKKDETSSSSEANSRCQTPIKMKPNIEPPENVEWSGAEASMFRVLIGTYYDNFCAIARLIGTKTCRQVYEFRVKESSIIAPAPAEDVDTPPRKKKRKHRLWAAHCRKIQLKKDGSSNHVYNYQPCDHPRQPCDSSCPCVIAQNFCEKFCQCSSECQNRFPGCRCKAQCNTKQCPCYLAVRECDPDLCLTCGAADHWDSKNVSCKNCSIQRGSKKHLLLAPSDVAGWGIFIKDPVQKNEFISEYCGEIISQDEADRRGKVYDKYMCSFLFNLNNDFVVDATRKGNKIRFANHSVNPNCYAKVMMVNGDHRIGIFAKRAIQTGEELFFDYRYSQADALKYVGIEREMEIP
# T3 sequence (Q6ZN18 2-517 partner limits assumed): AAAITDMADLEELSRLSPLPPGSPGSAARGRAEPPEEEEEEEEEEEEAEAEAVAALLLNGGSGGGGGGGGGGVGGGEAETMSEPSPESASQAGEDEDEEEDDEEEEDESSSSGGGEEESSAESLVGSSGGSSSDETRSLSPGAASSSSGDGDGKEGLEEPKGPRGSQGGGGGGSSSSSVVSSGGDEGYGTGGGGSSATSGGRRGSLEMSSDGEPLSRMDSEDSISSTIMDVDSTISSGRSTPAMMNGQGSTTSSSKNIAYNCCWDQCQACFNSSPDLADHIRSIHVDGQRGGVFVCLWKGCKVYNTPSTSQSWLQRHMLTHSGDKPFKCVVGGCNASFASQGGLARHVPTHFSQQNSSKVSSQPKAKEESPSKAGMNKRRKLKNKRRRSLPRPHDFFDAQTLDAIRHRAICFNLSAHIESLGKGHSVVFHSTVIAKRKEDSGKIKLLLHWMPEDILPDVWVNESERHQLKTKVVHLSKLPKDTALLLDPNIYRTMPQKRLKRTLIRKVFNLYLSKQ
# T3 sequence (O75530 2-441 partner limits assumed): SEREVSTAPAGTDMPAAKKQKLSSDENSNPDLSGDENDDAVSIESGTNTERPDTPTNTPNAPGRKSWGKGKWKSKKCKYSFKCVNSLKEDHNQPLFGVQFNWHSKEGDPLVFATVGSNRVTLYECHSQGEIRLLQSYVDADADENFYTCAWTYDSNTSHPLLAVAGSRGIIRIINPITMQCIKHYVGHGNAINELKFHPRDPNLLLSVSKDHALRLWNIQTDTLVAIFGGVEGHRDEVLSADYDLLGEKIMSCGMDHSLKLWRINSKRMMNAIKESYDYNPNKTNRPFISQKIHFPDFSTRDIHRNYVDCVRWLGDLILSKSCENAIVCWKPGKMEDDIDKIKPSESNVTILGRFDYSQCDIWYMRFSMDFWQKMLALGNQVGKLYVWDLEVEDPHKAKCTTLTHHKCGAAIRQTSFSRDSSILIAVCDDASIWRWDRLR
# T3 sequence (Q09028 2-425 partner limits assumed): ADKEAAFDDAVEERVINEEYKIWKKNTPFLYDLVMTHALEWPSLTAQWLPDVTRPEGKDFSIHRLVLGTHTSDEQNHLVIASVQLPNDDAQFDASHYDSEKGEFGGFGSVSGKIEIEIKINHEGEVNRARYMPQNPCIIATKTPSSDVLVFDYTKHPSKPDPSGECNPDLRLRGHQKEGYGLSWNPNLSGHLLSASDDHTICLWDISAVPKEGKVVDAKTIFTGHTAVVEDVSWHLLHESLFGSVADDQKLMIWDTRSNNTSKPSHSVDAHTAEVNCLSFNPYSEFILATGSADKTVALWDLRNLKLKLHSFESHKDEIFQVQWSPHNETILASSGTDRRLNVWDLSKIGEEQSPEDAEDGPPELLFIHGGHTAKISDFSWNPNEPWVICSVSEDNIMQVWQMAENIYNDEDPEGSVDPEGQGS
# T3 sequence (Q15022 2-739 partner limits assumed): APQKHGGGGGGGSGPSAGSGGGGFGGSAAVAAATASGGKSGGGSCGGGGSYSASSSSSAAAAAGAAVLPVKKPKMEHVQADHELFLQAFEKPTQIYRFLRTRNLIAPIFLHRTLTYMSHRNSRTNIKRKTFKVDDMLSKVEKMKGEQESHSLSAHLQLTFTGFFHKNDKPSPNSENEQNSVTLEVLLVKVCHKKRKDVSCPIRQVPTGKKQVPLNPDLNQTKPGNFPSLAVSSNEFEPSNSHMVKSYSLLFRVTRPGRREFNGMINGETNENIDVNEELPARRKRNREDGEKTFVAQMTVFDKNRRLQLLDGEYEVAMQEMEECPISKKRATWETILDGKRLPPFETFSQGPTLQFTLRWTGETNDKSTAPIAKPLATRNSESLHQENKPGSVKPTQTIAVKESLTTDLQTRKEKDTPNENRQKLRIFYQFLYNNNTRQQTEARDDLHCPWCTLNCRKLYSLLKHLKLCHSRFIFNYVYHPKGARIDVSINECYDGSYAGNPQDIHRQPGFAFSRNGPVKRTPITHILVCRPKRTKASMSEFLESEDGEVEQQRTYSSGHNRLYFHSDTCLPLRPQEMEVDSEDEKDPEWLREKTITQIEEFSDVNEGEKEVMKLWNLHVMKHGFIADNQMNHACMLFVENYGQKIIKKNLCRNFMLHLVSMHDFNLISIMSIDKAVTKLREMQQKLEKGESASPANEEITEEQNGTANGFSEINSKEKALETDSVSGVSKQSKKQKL
# Method: as §1
# [5] = target: T4, SUV39H2 (Homo sapiens, UniProt Q9H5I1); assay: HotSpot KMT activity assay, SUV39H2; type: biochemical; conditions: 1 µM; mean ± SD, two experiments; read-out: % enzyme residual activ. after treatment with 12h, 1 µM, SUV39H2
# T4 construct: SUV39H2 (residues 46–410, C-terminus); N-terminal fusion protein with a C-terminal His-tag; His (C); purchased Reaction Biology Corporation
# T4 sequence (Q9H5I1 46-410): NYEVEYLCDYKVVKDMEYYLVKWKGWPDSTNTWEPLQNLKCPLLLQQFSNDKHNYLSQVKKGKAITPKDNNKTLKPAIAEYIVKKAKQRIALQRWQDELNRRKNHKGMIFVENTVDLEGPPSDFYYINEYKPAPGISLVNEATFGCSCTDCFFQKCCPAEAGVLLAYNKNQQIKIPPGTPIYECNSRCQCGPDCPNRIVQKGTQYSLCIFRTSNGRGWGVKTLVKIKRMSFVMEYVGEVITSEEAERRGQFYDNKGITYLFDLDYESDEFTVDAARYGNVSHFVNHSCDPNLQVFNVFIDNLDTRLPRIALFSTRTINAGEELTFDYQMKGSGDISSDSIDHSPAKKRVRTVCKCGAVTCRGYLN
# Method: as §1
# [6] = target: G9a (Homo sapiens, UniProt Q96KQ7); assay: HotSpot KMT activity assay, G9a; type: biochemical; conditions: mean ± SD, two experiments, read-out: % enzyme residual activ. after treatment with 12h, 1 µM, G9a
# Method: as §1
# [7] = target: T5, SUV420H1 (Homo sapiens, UniProt Q4FZB7); assay: HotSpot KMT activity assay, SUV420H1; type: biochemical; conditions: 1 µM; mean ± SD, two experiments; read-out: % enzyme residual activ. after treatment with 12h, 1 µM, SUV420H1
# T5 construct: SUV420H1-tv2 (residues 2–393); C-terminus; N-terminal GST-tag; GST (N); purchased Reaction Biology Corporation
# T5 sequence (Q4FZB7 2-393 isoform Q4FZB7-2): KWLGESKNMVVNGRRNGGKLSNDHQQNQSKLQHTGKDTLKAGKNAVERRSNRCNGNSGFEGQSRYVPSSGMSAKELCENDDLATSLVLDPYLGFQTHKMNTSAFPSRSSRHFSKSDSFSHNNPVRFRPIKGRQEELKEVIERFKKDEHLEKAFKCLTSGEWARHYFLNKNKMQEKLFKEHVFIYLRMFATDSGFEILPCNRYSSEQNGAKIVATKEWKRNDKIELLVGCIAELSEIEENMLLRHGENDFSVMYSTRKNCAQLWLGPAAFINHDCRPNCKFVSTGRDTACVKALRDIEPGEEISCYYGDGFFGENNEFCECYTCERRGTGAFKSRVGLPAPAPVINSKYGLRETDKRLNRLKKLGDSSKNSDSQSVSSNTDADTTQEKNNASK
# Method: as §1
# Chain of PRMT1 (Q99873 whole entry): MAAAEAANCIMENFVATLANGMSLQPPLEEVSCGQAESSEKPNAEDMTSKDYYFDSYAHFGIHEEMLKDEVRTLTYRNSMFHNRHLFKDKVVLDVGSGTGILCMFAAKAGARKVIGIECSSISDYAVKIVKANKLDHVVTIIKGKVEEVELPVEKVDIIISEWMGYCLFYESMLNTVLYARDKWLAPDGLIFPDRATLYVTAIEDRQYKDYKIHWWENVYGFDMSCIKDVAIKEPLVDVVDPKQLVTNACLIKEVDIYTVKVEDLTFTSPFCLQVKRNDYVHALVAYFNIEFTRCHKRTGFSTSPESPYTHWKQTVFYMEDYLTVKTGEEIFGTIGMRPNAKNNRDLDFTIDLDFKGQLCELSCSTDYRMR
smiles,measurement,setting,value
"COC(=O)c1cc(O)c2cc(NC(=O)NCCCCCNC(=N)NC[C@H]3O[C@@H](n4cnc5c(N)ncnc54)[C@H](O)[C@@H]3O)ccc2c1 [12c, Methyl 6-(3-(5-(3-(((2R,3S,4R,5R)-5-(6-Amino-9H-purin-9-yl)-3,4-dihydroxytetrahydrofuran-2-yl)methyl)guanidino)pentyl)ureido)-4-hydroxy-2-naphthoate]",IC50,[1],300 nM
"COC(=O)c1cc(O)c2cc(NC(=O)NCCCCNC(=N)NC/C=C/[C@H]3O[C@@H](n4cnc5c(N)ncnc54)[C@H](O)[C@@H]3O)ccc2c1 [12h, Methyl 6-(3-(4-(3-((E)-3-((2R,3S,4R,5R)-5-(6-Amino-9H-purin-9-yl)-3,4-dihydroxytetrahydrofuran-2-yl)allyl)guanidino)butyl)ureido)-4-hydroxy-2-naphthoate]",remaining activity at 1 µM,[2],112 ± 2.25%
same,remaining activity at 1 µM,[3],90.76 ± 0.13%
same,remaining activity at 1 µM,[4],84.4 ± 5.51%
same,remaining activity at 1 µM,[5],114 ± 1.92%
same,remaining activity at 1 µM,[6],102 ± 1.67%
same,remaining activity at 1 µM,[7],104 ± 1.13%
